Results on 87 molecules are retold here after a melting point compilation (Tetko et al.; mined from patent text by program, amines drawn as free bases though some values may be those of a salt).

Some results are limits rather than exact numbers.

`O=C(O)CS(=O)(=O)c1cc(NS(=O)(=O)c2cccs2)c2ccccc2c1O`: the melting point (usually the temperature, or range, at which the solid turns liquid) lay within 190 to 192 °C.

Take `Cn1ncc(NCCCN2CCC(c3noc4cc(F)ccc34)CC2)cc1=O`: the melting point fell in the range of 163 to 165 °C.

Regarding `CC(C)(C)OC(=O)Nc1cc(OCC2COC(C)(C)O2)c(C#Cc2ccccc2)cc1NC(=O)CC(=O)c1cccc(C#N)c1` (configuration not stated), the melting point lay in the range of 132 to 134 °C.

`CC(C)[C@H](NC(=O)/C=C/c1cccnc1)C(=O)N[C@@H](Cc1ccccc1)[C@@H](O)[C@H](O)[C@H](Cc1ccccc1)NC(=O)[C@@H](NC(=O)/C=C/c1cccnc1)C(C)C`: the melting point was in the range of 285 to 289 °C.

With `CC(C)Nc1cccnc1N1CCN(C(=O)c2ccc(C(=O)NC(CO)CO)cn2)CC1`, the melting point was in the range of 90 to 93 °C.

As for `CN(C)C=C(C#N)C(=O)NCc1ccccc1`, the melting point is 160 to 161 °C.

For `O=C(c1ccccc1)C(c1ccc(Cl)cc1Cl)C(F)n1cncn1` (configuration not stated), the melting point fell in the range of 104 to 108 °C.

For `CCCc1nn(C)c2c(=O)n(CCCNc3ccc(OC(C)(C)C(=O)O)cc3)c(C)nc12`, the melting point lay in the range of 104 to 106 °C.

`CCc1sc2ncccc2c1S(=O)(=O)Nc1onc(C)c1Cl` showed a melting point of 152 to 154 °C.

The molecule `OC(CSc1ccnc2ccccc12)c1ccc2ccccc2c1` (configuration not stated) returned a melting point of 170 to 172 °C.

Molecule `O=C(c1ccc2nonc2c1)N1C2CCC1CC(F)(F)C2` had a melting point of 165 to 166 °C.

Take `CNc1nc(SC)ncc1CO`: the melting point was 155 to 157 °C.

`CC(CCCCO)Oc1c(I)cc(I)cc1I` (configuration not stated): the melting point lay within 79 to 80 °C.

`CNC1=CC(=O)C(Nc2ncnc3cc(OC)c(OC)cc23)=CC1=O`: the melting point was 283 to 285 °C.

`Cc1cc2c(-c3cccc(/C=C/c4nnn[nH]4)c3)c(CC(=O)Nc3ccc(F)cc3C(F)(F)F)c(=O)oc2cc1Cl` came in with a melting point of 216 to 218 °C.

For the molecule `CC(C)C[C@H](NC(=O)OCc1ccccc1)C(=O)N[C@@H](Cc1ccccc1Cl)C(=O)CSCc1ccco1`, the melting point came to 110 °C.

Regarding `CC(C)(C(CC(=O)c1ccccc1)c1cccnc1)[N+](=O)[O-]` (configuration not stated), the melting point was 134 to 135 °C.

In turn, `CC(C)(C)C(=O)C(Cl)Oc1ccc(-c2ccccc2)cc1` (configuration not stated) had a melting point of 185 to 190 °C.

On to `CCCCOc1ccc2cc(O)ccc2c1`, for which the melting point lay in the range of 100 to 102 °C.

The molecule `CONC(=O)Nc1ccc(-c2sc3c(c2CN(C)CCc2ccccn2)c(=O)n(-c2ccccn2)c(=O)n3Cc2c(F)cccc2F)cc1` had a melting point of 194 to 196 °C.

On to `CCCCCCCCCCCCCCCCO[C@@H]1CCCO[C@H]1CO` (relative stereo), for which the melting point is 41 to 42 °C.

Take `COc1ccccc1CNc1ccc2cc(Nc3nc(C(F)(F)F)co3)ccc2n1`: the melting point amounted to 144 °C.

`Nc1ccc(-c2noc(-c3cnn4c(C(F)(F)F)cc(-c5cccc(C(F)(F)F)c5)nc34)n2)cn1` gave a melting point of 264 °C.

For the molecule `CN(C(=O)N[C@@H](Cc1ccc(Oc2nccc3ccncc23)cc1)C(=O)O)c1ccccc1Cc1ccccc1`, the melting point turned out to be 128 °C.

Take `CCc1ccc2oc(=O)c(NC(=O)Nc3ccc(F)cc3F)c(-c3ccccc3C)c2c1`: the melting point was 210 to 211 °C.

For `O=C(Nc1ccc2ccc(-c3ccc(Cl)c(Cl)c3)nc2n1)c1cccc(Br)c1`, the melting point is 176 to 178 °C.

`CCOC(=O)c1c(C)nc(-c2ccccc2)nc1-c1cccc(C(F)(F)F)c1`: the melting point fell in the range of 59 to 60 °C.

As for `CCCCN(Cc1ccc(-c2ccccc2-c2nnn[nH]2)cc1)c1ncncc1C(=O)OCOC(C)=O`, the melting point lay within 65 to 69 °C.

As to `CCO[C@@H]1C(C(=O)Nc2ccc(Cl)cc2)=C(C)OC(OCC)(OCC)[C@H]1C` (relative stereo), the melting point was 104 to 106 °C.

For the molecule `CC(=CC(C)(O)c1ccc(Cl)cc1Cl)n1cncn1` (configuration not stated), the melting point came out at 101 °C.

Consider `CCCN(CCC)C(=O)COc1nc(-c2ccccc2)nc(C)c1Cl`, for which the melting point was in the range of 90 to 91 °C.

For the molecule `CC(=O)Oc1cc([N+](=O)[O-])ccc1CBr`, the melting point lay within 76.5 to 78 °C.

As to `Nc1csc(-c2cc3c(Oc4ccc(Cl)cc4)cncc3s2)n1`, the melting point fell in the range of 168 to 170 °C.

With `CCCCCCCCCCCCCCC(=O)C(=O)N[C@@H](CCCC)C(=O)NCC(=O)OC(C)(C)C`, the melting point fell in the range of 38 to 39 °C.

`Cc1cc(S(N)(=O)=O)sc1S(=O)(=O)CCO` displayed a melting point of 144 to 148 °C.

The molecule `COc1ccc2c3c([nH]c2c1)C(=O)N=NC3=O` displayed a melting point above 260 °C.

In turn, `CN(C)CCCNC(CC(=O)O)C(=O)OC1CCCCC1` (configuration not stated) showed a melting point of 150 to 152 °C.

For `CC(=O)Cc1ccc(NC(=O)/C=C/c2cnn(C)c2-c2ccc(F)cc2)cc1`, the melting point was 186 to 187 °C.

For the molecule `CC1CCCN(C2c3cc4nonc4cc3OC(C)(C)C2O)C1=O` (configuration not stated), the melting point is 146 to 149 °C.

For the molecule `O=[N+]([O-])c1ccc(F)c(-c2ccsc2)c1`, the melting point stood at 65 °C.

As for `N#CCSc1nc2cc(Cl)ccc2s1`, the melting point was 96 to 97 °C.

For the molecule `CC(=O)c1sc(N2CCN(Cc3cccc(C(F)(F)F)c3)C2=O)nc1C`, the melting point lay within 149 to 151 °C.

`Nc1cccc2cc(C(=O)O)ccc12` returned a melting point of 231 to 234 °C.

`CSc1nnc2ccc3ccccc3n12` yielded a melting point of 115 to 116 °C.

As to `Cc1nc(CCl)c(Br)s1`, the melting point is 154 to 156 °C.

In the case of `COc1ccc(C2CN(C(C)=O)C(=O)O2)cc1OC` (configuration not stated), the melting point lay in the range of 175 to 182 °C.

In the case of `C[C@@H](S[C@H]1CO[C@H](c2ccccc2)OC1)[C@](O)(Cn1cncn1)c1ccc(F)cc1F`, the melting point was 58 to 60 °C.

On to `O=c1[nH]c2cc(N3CCCC3)c(F)cc2c(=O)n1OCc1ccccc1`, for which the melting point was above 250 °C.

For the molecule `COc1ccc(S(=O)(=O)Nc2ccccc2NC(=O)c2ccccc2)cc1`, the melting point was in the range of 167 to 168 °C.

On to `CCOCc1nc2c(cc(C)n3nnnc23)n1CC(C)C`, for which the melting point fell in the range of 158 to 160 °C.

Molecule `COC(=O)c1ccc(-c2ccc(Cl)cc2)[nH]1` yielded a melting point of 177 to 179 °C.

Turning to `CCn1c2cc(C=O)ccc2c2ccc3ccccc3c21`, the melting point is 138 to 139 °C.

Turning to `COC(=O)c1ccc(Cc2cc3cc(C(F)(F)F)ccc3[nH]2)cc1`, the melting point stood at 127 °C.

As for `COc1ccc(Cc2nnc3c4ccccc4c(Nc4cccc(-c5nn[nH]n5)c4)nn23)cc1`, the melting point was in the range of 292 to 293 °C.

In turn, `CC1c2ccccc2CC(O)Cc2ccccc21` (configuration not stated) registered a melting point of 142 to 145 °C.

The molecule `CC(C)C[C@H](NC(=O)CCC(=O)c1ccccc1)C(=O)N[C@@H](C(C)C)[C@@H](O)c1c(-c2ccccc2)c1=O` displayed a melting point of 83 to 88 °C.

The molecule `CCCNc1nc(-c2ccccc2)c(CCC(=O)OC)s1` registered a melting point of 67 to 68 °C.

Take `CC1(C)CCC(C)(C)c2cc(C3=NN(c4ccc(C(=O)O)cc4)CC3)ccc21`: the melting point was in the range of 276 to 278 °C.

As to `Cc1cc(C)c(Nc2nc(Nc3ccc(C#N)cc3)ncc2-c2ccccc2)c(C)c1`, the melting point was 209 to 214 °C.

In turn, `CCN1C(=O)C(C(=O)Nc2cccc(C(=O)Nc3ccccc3)c2)c2cc(C(C)=O)ccc21` (configuration not stated) registered a melting point of 173 to 175 °C.

For the molecule `COc1ccc2c(c1)C(CCN1CC=C(c3ccccc3)CC1)C(C)N2C(C)=O` (configuration not stated), the melting point was in the range of 113 to 115 °C.

On to `CS(=O)(=O)OCCc1cc([N+](=O)[O-])ccc1COS(C)(=O)=O`, for which the melting point lay in the range of 88 to 89 °C.

The molecule `O=C(COc1ncc(Cl)cc1Cl)Nc1ccccc1` displayed a melting point of 164 to 166 °C.

`COc1cc2c(cc1Cl)C(Cl)(c1ccccc1Cl)C(=O)N2` (configuration not stated): the melting point was in the range of 237 to 240 °C.

For `CC(C)(C)OC(=O)N1CCN(c2ccc(N)cc2C#N)CC1`, the melting point was 145 °C.

`CCOc1cc2oc(=O)c3c(c2cc1OCC)CCN(CCN1CCCCC1)C3`: the melting point was in the range of 144 to 146 °C.

For the molecule `COC(=O)c1ccccc1-n1c(CCl)nc2cccc(Cl)c2c1=O`, the melting point is 177 to 178 °C.

As to `O=C(Nc1ccc(CC2CCN(S(=O)(=O)N3CCCCC3)CC2)cc1)C(F)(F)F`, the melting point lay within 156 to 157 °C.

`CC1(C)C(C(=O)NO)N(S(=O)(=O)c2ccc(-c3ccc(Br)cc3)cc2)CCS1(=O)=O` (configuration not stated) gave a melting point of 190 to 191 °C.

On to `C=CCOc1ncc(F)c(O)n1`, for which the melting point was in the range of 138 to 141 °C.

Molecule `FC(F)(F)c1cc(Br)c2nc(C(F)(F)F)[nH]c2c1` registered a melting point of 127 to 130 °C.

For `Cc1ncc([N+](=O)[O-])cc1C(=O)NC(=O)C(C)(C)C`, the melting point was 138 to 139 °C.

As to `CC(=O)OC1=C(c2ccccc2)C(=O)N(C(C)(C)c2ccccc2)C1`, the melting point fell in the range of 149 to 150 °C.

Consider `CC1Nc2cc(Br)ccc2NC1=O` (configuration not stated), for which the melting point lay within 133 to 135 °C.

With `COc1ccc2c(c1)C(=O)C(Cc1ccccc1)CS2` (configuration not stated), the melting point was in the range of 66 to 68 °C.

For the molecule `CCCCCCCCCCCCCCCCCCS(=O)(=O)c1cc(C(=O)OC)c([N+](=O)[O-])c(C(=O)OC)c1`, the melting point was 98 to 100 °C.

With `CN1CCCc2cc(OC(=O)Nc3ccc(Cl)c(C(F)(F)F)c3)ccc21`, the melting point came to 152 °C.

`Cc1oncc1C(=O)Nc1ccc(-n2nc(C(F)(F)F)cc2C2CC2)cc1` had a melting point of 90 to 95 °C.

In turn, `Cc1nc2sccn2c(=O)c1CCN1CCC(=C2c3ccc(F)cc3CCn3ncnc32)CC1` displayed a melting point of 162 °C.

`CCN(CC)C(=O)c1cc(-c2ccccc2)c2ccccc2c1` displayed a melting point of 123 to 124 °C.

In turn, `CC(C(=O)C=Cc1ccccc1)C(=O)C=Cc1ccccc1` (configuration not stated) showed a melting point of 154 to 157 °C.

`CCCOc1ccc(-c2ccc3c(c2)C=C(C(=O)OC)CCS3(=O)=O)cc1` showed a melting point of 153 to 155 °C.

With `CC(C(O)c1ccc(O[Si](C(C)C)(C(C)C)C(C)C)c(F)c1)N1CCC(O)(c2ccc(F)cc2)CC1` (configuration not stated), the melting point lay in the range of 159 to 160 °C.

For `CN1CCN(C(=O)Nc2cc(Br)ccc2N2CCc3cc(Br)ccc32)CC1`, the melting point fell in the range of 118 to 120 °C.

In turn, `CC(C)(C)OC(=O)NC[C@H]1CC[C@H](CO)CC1` gave a melting point of 88 to 89 °C.

Consider `CN(C)CCNC(=O)c1ccc(-c2ccc3nnn(Cc4ccc5ncccc5c4)c3n2)cc1F`, for which the melting point fell in the range of 122 to 125 °C.

In turn, `CCCc1c(OCCCOc2ccc(-c3nnn[nH]3)cc2Cl)ccc(C(C)=O)c1O` came in with a melting point of 214 to 216 °C.
